From patent publication US9951087B2, “Fused ring analogues of anti-fibrotic agents” (Fibrotech Therapeutics PTY LTD, priority 2009, dated 2018) come the findings set out here.

Molecules are shown by their SMILES.

A short description of series [1]: Compound precipitation observed during the proline incorporation assay. It is filed as physicochemical. Set-up: key: ppt indicates compound precipitated during assay. The method, then:
(§1) Cells were plated into 24-well culture dishes in DMEM/5% FBS and allowed to adhere overnight. The subconfluent cells were then starved overnight in DMEM/0.1% FBS and 150 uM L-ascorbic acid, prior to pre-treatment with or without FibroTech compounds for 4 hours at 10, 30 or 100 uM in 0.1% DMSO, final concentration. TGF-beta 1 at 5 ng/mL (Peprotech) and tritiated proline (Perkin-Elmer, (2,3,4,5-^3H)-proline) at 1 uCi/mL were added and the incubation continued for a further 44 hours. Treatments were performed in triplicate.

Series [2] concerns rat mesangial cells. The series can be described thus: Toxicity rank and cell condition observed in the proline incorporation assay. It is filed as cell-based. Set-up: key to Tox. Rank (4 = non-toxic): (4 = non-toxic). To be noted: for Cell condition observed (sick, dead): 30 μM; for Cell condition observed (sick, dead, some death, cells elongated): 100 μM. The method, then:
(§2) A well-characterised cloned rat mesangial cell line (Kakizaki Y, Kraft N, Atkins R C: Differential control of mesangial cell proliferation by interferon-gamma. Clin Exp Immunol 85:157-163, 1991) was cultured in DMEM (5 mM glucose) with 5% FBS, 100U/mL penicillin, and 100 ug/mL streptomycin in humidified 5% CO2 atmosphere at 37 C. Cells were used up to passage 40.
as §1

Series [3] deals with rat mesangial cells. The series can be described thus: Proline incorporation assay: reduction of TGF-beta 1 stimulated proline incorporation. The format is cell-based. The settings on record: Mesangial cell, 44 h, TGF-beta 1 5 ng/mL, read-out: Percentage Reduction of TGF-Beta 1 Stimulated Proline Incorporation; for inhibition at 10 µM: 10 μM compound; for inhibition at 30 µM: 30 μM compound; for inhibition at 100 µM: 100 μM compound. The method, then: as §2
Proline Incorporation Assay
as §1
After the incubation, cells were placed on ice and washed three times with ice cold PBS. They were then incubated on ice with 10% TCA for 30 minutes, followed by a final wash in cold 10% TCA. The cells were solubilized in 0.75 mL of 1M NaOH at 37 C for 45 minutes, or overnight at 4 C. Aliquots of the solubilized cells were neutralized in an equal amount of 1M HCl and counted in scintillant in a beta counter. Aliquots of neutralized solubilized cells were assayed for protein using the BioRad Bradford Protein Assay. Proline incorporation was normalized for protein content (cpm ^3H-proline incorporated per ug protein).
In order to compare the results of experiments performed on different days, the percentage inhibition of proline incorporation was calculated for each treatment by setting the TGF treatment at 0% inhibition and the control (incubation with media alone) at 100% inhibition.
Percentage Reduction of TGF-Beta 1 Stimulated Proline Incorporation: […]

Regarding `COc1ccc(/C=C/C(=O)n2c(=O)n(C)c3ccccc32)cc1OC` [FT123, (E)-1-(3-(3,4-Dimethoxyphenyl)acryloyl)-3-methyl-1H-benzo[d]imidazol-2(3H)-one], the “Compound precipitated during assay” value in series [1] (30 μM in 0.1% DMSO) is given as “ppt”. Further, in series [1] (100 μM in 0.1% DMSO), the “Compound precipitated during assay” value is reported as “ppt”. Also, in series [2], the “Cell condition observed (sick, dead)” value is recorded as “sick” and the “Cell condition observed (sick, dead, some death, cells elongated)” value is recorded as “dead”. In addition, in series [2] (no concentration stated), the “Tox. Rank (4 = non-toxic)” value was in the range of 1 to 2. Besides, in series [3], the inhibition at 10 µM turned out to be 0%, the inhibition at 30 µM turned out to be 0% and the inhibition at 100 µM was determined as 0%.

The compound `COc1ccc(/C=C/C2=NS(=O)(=O)c3ccccc3N2)cc1OC` [FT98, (E)-3-[2-(3,4-Dimethoxyphenyl)ethenyl]-4H-1,2,4-benzothiadiazine-1,1-dioxide] returned a melting point of 276 to 279 °C. Further, the “Tox. Rank (4 = non-toxic)” value in series [2] (no concentration stated) came to 4. Besides, in series [3], the inhibition at 10 µM was found to be 30%, the inhibition at 30 µM turned out to be 70% and the inhibition at 100 µM turned out to be 70%.

As to `COc1ccc(/C=C/C(=O)N2CCc3ccccc32)cc1OC` [FT113, (E)-3-(3,4-dimethoxyphenyl)-1-(indolin-1-yl)prop-2-en-1-one], the melting point lay within 118 to 120 °C. For the same compound, the “Tox. Rank (4 = non-toxic)” value in series [2] (no concentration stated) came to 4. In series [3], the inhibition at 10 µM worked out at 20%, the inhibition at 30 µM came out at 67% and the inhibition at 100 µM turned out to be 44%.

With `C#CCOc1ccc(/C=C/c2nc3ccccc3c(=O)o2)cc1OC` [FT107, (E)-2-(3-Methoxy-4-propargyloxystyryl)-4H-benzo[d][1,3]oxazin-4-one], the melting point is 177 to 178 °C. Moreover, the “Compound precipitated during assay” value in series [1] (100 μM in 0.1% DMSO) is reported as “ppt”. Moreover, in series [2] (no concentration stated), the “Tox. Rank (4 = non-toxic)” value came to 4. In series [3], the inhibition at 10 µM is 0%, the inhibition at 30 µM is 0% and the inhibition at 100 µM turned out to be 0%.

Regarding `O=c1oc(/C=C/c2ccc(OC(F)F)c(OC(F)F)c2)nc2ccccc12` [FT108, (E)-2-(3,4-Bis(difluoromethoxy)styryl)-4H-benzo[d][1,3]oxazin-4-one], the melting point is 113 to 115 °C. The “Tox. Rank (4 = non-toxic)” value in series [2] (no concentration stated) was 4. Further, in series [3], the inhibition at 10 µM amounted to 75%, the inhibition at 30 µM came to 95% and the inhibition at 100 µM is above 100%.

`COc1cc(/C=C/c2nc3ccccc3c(=O)o2)ccc1OC(C)=O` [FT109, (E)-2-(4-Acetoxy-3-methoxystyryl)-4H-benzo[d][1,3]oxazin-4-one] showed a melting point of 185 to 186 °C. In addition, in series [1] (100 μM in 0.1% DMSO), the “Compound precipitated during assay” value was “ppt”. The “Tox. Rank (4 = non-toxic)” value in series [2] (no concentration stated) is on record as 4. Besides, in series [3], the inhibition at 10 µM came to 3%, the inhibition at 30 µM turned out to be 16% and the inhibition at 100 µM worked out at 75%.

`COc1ccc(/C=C/c2nc3ncccc3c(=O)o2)cc1OC` [FT102, (E)-2-(3,4-Dimethoxystyryl)-4H-pyrido[2,3-d][1,3]oxazin-4-one]: the melting point lay within 228 to 231 °C. In addition, the “Compound precipitated during assay” value in series [1] (100 μM in 0.1% DMSO) was “ppt”. In addition, the “Tox. Rank (4 = non-toxic)” value in series [2] (no concentration stated) is 4. For the same compound, in series [3], the inhibition at 10 µM came out at 0%, the inhibition at 30 µM came to 0% and the inhibition at 100 µM turned out to be 10%.

With `COc1ccc(/C=C/C(=O)n2c(=O)oc3ccccc32)cc1OC` [FT124, (E)-3-(3-(3,4-Dimethoxyphenyl)acryloyl)benzo[d]oxazol-2(3H)-one], the “Compound precipitated during assay” value in series [1] (10 μM in 0.1% DMSO) is recorded as “ppt”. In series [1] (30 μM in 0.1% DMSO), the “Compound precipitated during assay” value is on record as “ppt”. Also, the “Compound precipitated during assay” value in series [1] (100 μM in 0.1% DMSO) is on record as “ppt”. Moreover, in series [2], the “Cell condition observed (sick, dead)” value is reported as “sick” and the “Cell condition observed (sick, dead, some death, cells elongated)” value is “sick”. Further, the “Tox. Rank (4 = non-toxic)” value in series [2] (no concentration stated) was 2. In series [3], the inhibition at 10 µM came to 0%, the inhibition at 30 µM worked out at 0% and the inhibition at 100 µM stood at 0%.

With `COc1ccc(/C=C/c2nc3c(C(=O)O)cccc3o2)cc1OC` [FT132, (E)-2-(3,4-Dimethoxystyryl)benzo[d]oxazole-4-carboxylic acid], in series [1] (30 μM in 0.1% DMSO), the “Compound precipitated during assay” value is recorded as “ppt”. In addition, the “Compound precipitated during assay” value in series [1] (100 μM in 0.1% DMSO) is recorded as “ppt”. The “Cell condition observed (sick, dead, some death, cells elongated)” value in series [2] is “(some death)”. The “Tox. Rank (4 = non-toxic)” value in series [2] (@100 uM) was 3@100 uM. In series [3], the inhibition at 10 µM is around 2%, the inhibition at 30 µM is around 75% and the inhibition at 100 µM is around 75%.

Take `COc1cc2c(cc1OC)/C(=C/C(=O)Nc1ccccc1C(=O)O)CNC2=O` [FT131, (Z)-2-(2-(6,7-Dimethoxy-1-oxo-2,3-dihydroisoquinolin-4(1H)-ylidene)acetamido)benzoic acid]: the “Tox. Rank (4 = non-toxic)” value in series [2] (no concentration stated) is 4. In addition, in series [3], the inhibition at 10 µM is around 20%, the inhibition at 30 µM is around 10% and the inhibition at 100 µM was around 10%.

With `COc1ccc(/C=C/c2nc3ccccc3c(=O)o2)cc1OC(C)=O` [FT110, (E)-2-(3-Acetoxy-4-methoxystyryl)-4H-benzo[d][1,3]oxazin-4-one], in series [1] (100 μM in 0.1% DMSO), the “Compound precipitated during assay” value is “ppt”. Besides, the “Cell condition observed (sick, dead, some death, cells elongated)” value in series [2] is “(cells elongated)”. Also, the “Tox. Rank (4 = non-toxic)” value in series [2] (@100 uM) was 3@100 uM. In series [3], the inhibition at 10 µM was 0%, the inhibition at 30 µM was 0% and the inhibition at 100 µM was 0%.
